Values quoted from earlier work as cited in PMC7941644, “Identification and Development of Therapeutics for COVID-19” (ArXiv, 2021).
Counter-ions that a name gives are not always drawn. Like-named read-outs stand apart in the source and are kept apart here.

Legend:
COVID-19 [1] = tested on: COVID-19; design: method as in PMID 33492523; details: mild to moderate symptoms, in addition to SOC; p = 0.06
Vero E6 cells = details: read-out: 90% effective concentration (EC90)
SARS-CoV-2 [2] = details: SARS-CoV-2 infection of Vero cells
SARS-CoV-1 [3] = details: Vero E6 cells
COVID-19 [4] = details: vs SOC
COVID-19 [5] = tested on: COVID-19
COVID-19 [6] = tested on: COVID-19; remark: listed apart in the source
SARS-CoV-2 [7] = details: second interim analysis, 600 mg daily; control 3
COVID-19 [8] = details: ivermectin preliminary; HCQ and lopinavir-ritonavir ref 144
COVID-19 [9] = details: days 3–6; study design severely limited
COVID-19 [10] = details: treatment vs control groups
SARS-CoV-2 [11] = tested on: SARS-CoV-2
COVID-19 [12] = details: HCQ arm vs control
SARS-CoV-2 [13] = details: control 16.8%, p < 0.001
COVID-19 [14] = details: vs SOC alone
SARS-CoV-2 [15] = tested on: SARS-CoV-2; design: method as in PMID 32142651; details: lung cells in vitro
COVID-19 [16] = tested on: COVID-19; design: method as in doi:10.1101/2020.06.22.20137273
IL-12 = tested on: IL-12; design: method as in PMID 8902882
IL-10 = tested on: IL-10; design: method as in PMID 8902882
SARS-CoV-2 [17] = tested on: SARS-CoV-2; remark: listed apart in the source
COVID-19 [18] = tested on: COVID-19; remark: listed apart in the source
COVID-19 [19] = tested on: COVID-19; remark: listed apart in the source
COVID-19 [20] = tested on: COVID-19; design: method as in ref 145 = [145]; 145. August 6, 2021: Early Treatment of COVID-19 with Repurposed Therapies: The TOGETHER Adaptive Platform Trial (Edward Mills, PhD, FRCP) Rethinking Clinical Trials ( 2021 - 08 - 11 ) https://rethink; details: placebo group 107; preliminary analysis as of August 6, 2021
SARS-CoV-2 [21] = tested on: SARS-CoV-2; design: method as in PMID 32251768; details: Vero-hSLAM; at concentrations much higher than existing dosage guidelines
COVID-19 [22] = tested on: COVID-19; design: method as in PMID 33065103
COVID-19 [23] = tested on: COVID-19; design: method as in PMID 33175880
COVID-19 [24] = tested on: COVID-19; design: method as in PMID 33662102; details: 400 patients
COVID-19 [25] = tested on: COVID-19; remark: listed apart in the source
COVID-19 [26] = tested on: COVID-19; remark: listed apart in the source
COVID-19 [27] = tested on: COVID-19; remark: listed apart in the source
COVID-19 [28] = details: significant when intubated patients excluded
COVID-19 [29] = details: p < 0.001
COVID-19 [30] = details: 95% CI 0.376–0.547, p < 0.001
COVID-19 [31] = tested on: COVID-19; remark: listed apart in the source
COVID-19 [32] = tested on: COVID-19; remark: listed apart in the source
COVID-19 [33] = tested on: COVID-19; remark: listed apart in the source
COVID-19 [34] = tested on: COVID-19; design: method as in ref 210; combination ref 208; details: phase 2 portion; bamlanivimab alone ref 210; combination ref 208
COVID-19 [35] = tested on: COVID-19; design: method as in PMID 33031764
SARS-CoV-1 [36] = details: mouse, in vivo
COVID-19 [37] = details: compared to placebo

In the case of `CCN(CC)CCCC(C)Nc1ccnc2cc(Cl)ccc12` (centres unmarked) [CQ, chloroquine], the hospital stay (COVID-19 [1]) is given as 15.89 days, the EC90 (Vero E6 cells) is given as 6.9 µM and the “inhibition of viral replication” value (SARS-CoV-2 [2]) is given as “effective in inhibiting viral replication”. The “inhibition of viral entry” value (SARS-CoV-1 [3]) was “inhibited viral entry of SARS-CoV-1”.

In the case of `CCN(CCO)CCCC(C)Nc1ccnc2cc(Cl)ccc12` (centres unmarked) [HCQ, hydroxychloroquine], the “inhibition of viral replication” value (SARS-CoV-2 [2]) is listed as “effective in inhibiting viral replication”, the “time to fever break and time to cough relief” value (COVID-19 [4]) is listed as “decreased both average time to fever break and average time to cough relief” and the “risk with short-term use” value is listed as “not associated with additional risk”. The “adjusted HR, risk of death” value (COVID-19 [5]; compared to no-HCQ group) was 2.61, the rate of death (COVID-19 [5]; men, median age 65, no-HCQ group 14.1%) was 27.8% and the “difference in viral load between HCQ and control groups” value (COVID-19 [6]; day 3, 95% CI −0.28 to 0.29) was 0.01. For the same molecule, the “difference in viral load between HCQ and control groups” value (COVID-19 [6]; day 7, 95% CI −0.44 to 0.29) was −0.07, the “difference in time to complete resolution of symptoms” value (COVID-19 [6]; p = 0.38) was -2 days and the “individuals who had contracted COVID-19” value (SARS-CoV-2 [7]) was 4. The “effect on COVID-19 outcomes” value (COVID-19 [8]) was “no effect”, the “virological clearance by nasopharyngeal swab” value (COVID-19 [9]) was “higher rates of virological clearance” and the “virological clearance rate, time to virological clearance, time to body temperature normalization” value (COVID-19 [10]) was “comparable outcomes”. For the same molecule, the “median time to symptom alleviation” value (SARS-CoV-2 [11]; HCQ + SOC, SOC 21 days, p = 0.97) was 19 days, the “estimated difference in negative conversion rate of SARS-CoV-2 in 28 days” value (SARS-CoV-2 [11]; SOC plus HCQ vs SOC, 95% CI −10.3% to 18.5%) was 4.1% and the diarrhea (SARS-CoV-2 [11]; SOC+HCQ, 0% in SOC group, p = 0.004) was 10%. For the same molecule, the “patients reporting adverse outcomes” value (SARS-CoV-2 [11]; SOC+HCQ, SOC only 8.8%) was 30%, the “increase in cardiac events” value (COVID-19 [12]) was 0.4 percentage points and the “patients reporting side effects” value (SARS-CoV-2 [13]) was 40.1%.

For `COC(=O)OCOc1c2n(ccc1=O)N([C@@H]1c3ccccc3SCc3c1ccc(F)c3F)[C@@H]1COCCN1C2=O` [baloxavir marboxil], the “effect on viral clearance at day 14 and secondary outcomes” value (COVID-19 [14]) is listed as “no significant effect”.

In the case of `CN(C)C(=O)COC(=O)Cc1ccc(OC(=O)c2ccc(NC(=N)N)cc2)cc1` [camostat mesylate], the “block of viral entry” value (SARS-CoV-2 [15]) is listed as “block the entry of SARS-CoV-2 into lung cells”.

In the case of `C[C@@H]1C[C@H]2[C@@H]3CCC4=CC(=O)C=C[C@]4(C)[C@@]3(F)[C@@H](O)C[C@]2(C)[C@@]1(O)C(=O)CO` [dexamethasone, 9α-fluoro-16α-methylprednisolone], the 28-day mortality rate (COVID-19 [16]; all patients, 6 mg per day for up to 10 days, SOC 24.6%, p < 0.001) is given as 21.6%, the 28-day mortality (COVID-19 [16]; patients breathing independently at randomization, SOC 14.0%) is given as 17.8% and the 28-day mortality (COVID-19 [16]; patients receiving oxygen supplementation at randomization, SOC 26.2%) is given as 23.3%. The 28-day mortality (COVID-19 [16]; patients ventilated at randomization, SOC 41.4%) was 29.3%, the “effect on IL-12 production” value (IL-12) was “dose-dependent inhibition of IL-12 production” and the “effect on IL-10” value (IL-10) was “not to affect IL-10”.

For `O=c1c2ccccc2[se]n1-c1ccccc1` [ebselen], the “antiviral effect in SARS-CoV-2-infected Vero cells” value (SARS-CoV-2 [17]) is listed as “strongest potency in reducing the viral load”.

For `NC(=O)c1nc(F)cnc1O` [favipiravir, 6-fluoro-3-hydroxy-2-pyrazinecarboxamide], the hospital stay (COVID-19 [1]) is given as 13.29 days, the “time to viral clearance by RT-PCR” value (COVID-19 [18]; 35 favipiravir, 45 control patients) is given as “four” and the “patients with adverse side effects” value (COVID-19 [18]; control 56%) is given as 11%. For the same molecule, the “improvement rate of lung CT scans” value (COVID-19 [18]; day 14, control 62%, p = 0.004) was 91%, the “effect on viral clearance at day 14 and secondary outcomes” value (COVID-19 [14]) was “no significant effect” and the “effect on viral clearance at four days (secondary endpoint)” value (COVID-19 [19]) was “significant effect”. For the same molecule, the tolerability (COVID-19 [19]) was “generally well-tolerated”.

In the case of `COCCCC/C(=N\OCCN)c1ccc(C(F)(F)F)cc1` [fluvoxamine], the “patients progressed to hospitalization for COVID-19” value (COVID-19 [20]) is listed as 74.

In the case of `CC[C@H](C)[C@H]1O[C@]2(CC[C@@H]1C)C[C@@H]1C[C@@H](C/C=C(\C)[C@@H](O[C@H]3C[C@H](OC)[C@@H](O[C@H]4C[C@H](OC)[C@@H](O)[C@H](C)O4)[C@H](C)O3)[C@@H](C)/C=C/C=C3\CO[C@@H]4[C@H](O)C(C)=C[C@@H](C(=O)O1)[C@]34O)O2` [ivermectin], the “inhibition of viral replication” value (SARS-CoV-2 [21]) is given as “inhibit viral replication”, the all-cause mortality (COVID-19 [22]) is given as “reduced all-cause mortality” and the “clinical outcomes or viral clearance” value (COVID-19 [23]) is given as “no difference in clinical outcomes or viral clearance”. For the same molecule, the duration of symptoms (COVID-19 [24]) was “no effect on the duration of symptoms” and the “effect on COVID-19 outcomes” value (COVID-19 [8]) was “no effect on COVID-19 outcomes”.

For `Cc1cccc(C)c1OCC(=O)N[C@@H](Cc1ccccc1)[C@@H](O)C[C@H](Cc1ccccc1)NC(=O)[C@H](C(C)C)N1CCCNC1=O` [lopinavir], the “effect on COVID-19-related mortality” value (COVID-19 [25]) is listed as “no effect”.

For “TCZ: humanized monoclonal antibody that binds the insoluble and soluble receptor of IL-6”, the patients dying (COVID-19 [26]; 2 of 62 admitted after TCZ available, 11 of 23 (47.8%) before) is given as 3.2%, the “multivariate HR, survival” value (COVID-19 [26]; CI 0.004–0.347, p = 0.004) is given as 0.035 and the “progression to invasive medical ventilation” value (COVID-19 [27]; SOC 32%, p = 0.006) is given as 0%. The mortality (COVID-19 [27]; SOC 48%, p = 0.066) was 25%, the “progression to death and/or ICU admission” value (COVID-19 [27]; SOC 72%, p = 0.002) was 25% and the “mortality, TCZ vs SOC” value (COVID-19 [28]) was “did not differ”. The “HR, survivorship” value (COVID-19 [29]; 19 studies) was 0.41, the “HR, survivorship” value (COVID-19 [29]; excluding studies that administered a steroid alongside TCZ) was 0.04 and the “odds ratio of mortality” value (COVID-19 [30]) was 0.453. For the same molecule, the “change in symptoms following treatment” value (COVID-19 [31]) was “rapid improvement in symptoms”, the “rate ratio, hospital discharge within 28 days” value (COVID-19 [32]; 95% CI 1.12–1.34, p < 0.0001) was 1.22 and the “rate ratio, 28-day mortality” value (COVID-19 [32]; RECOVERY combined with seven smaller randomized control trials, 95% CI 0.79–0.96, p = 0.005) was 0.87. For the same molecule, the 28-day mortality (COVID-19 [32]; SOC alone 33%) was 29%, the “rate ratio, 28-day mortality” value (COVID-19 [32]; TCZ vs SOC, 95% CI 0.77–0.96, p = 0.007) was 0.86 and the “reduction in 28-day mortality” value (COVID-19 [32]; combined analysis of RECOVERY with smaller RCTs) was 13%. The “probability of hospital discharge within 28 days” value (COVID-19 [32]; living patients, SOC 47%) was 54%, the “participants with adverse reactions determined to be associated with the intervention” value (COVID-19 [32]; out of 2,022 participants receiving TCZ) was “three” and the “adjusted HR, progression to invasive medical ventilation and/or death” value (COVID-19 [33]; 14-day period, CI 0.40–0.92, p = 0.020) was 0.61. For the same molecule, the death rate (COVID-19 [33]; control 20%) was 7% and the secondary infections (COVID-19 [33]; control group 4%, p < 0.0001) was 24%.

In the case of “bamlanivimab: human mAb derived from convalescent plasma of a recovered COVID-19 patient”, the “effect on viral load” value (COVID-19 [34]) is given as “able to accelerate the reduction in viral load”.

For lopinavir-ritonavir, the “effect on COVID-19 outcomes” value (COVID-19 [8]) is listed as “no effect” and the “effect on COVID-19-related mortality” value (COVID-19 [35]) is listed as “no effect”.

In the case of poly(I:C), the “effect when administered prior to infection” value (SARS-CoV-1 [36]) is given as “protective effects”.

In the case of sotrovimab, the “rates of adverse events” value (COVID-19 [37]) is given as “comparable, and in some cases lower” and the “more effective in reducing progression to the primary endpoint (hospitalized for more than 24 hours or died within 29 days)” value (COVID-19 [37]; 583 patients) is given as 85%.
